The results in this text go back to patent EP0407586A1, “HUMAN MONOCLONAL ANTIBODY AND PROCESS FOR ITS PREPARATION” (TEIJIN LIMITED, priority 1988, dated 1990).

The structures appear in SMILES notation.

The first experiment deals with reaction of the MCA produced by hybridoma 11-50 with human colon cancer cell line SW480. Nature of the experiment: Inhibition of the reaction of the MCA with immobilized SW480 cells (ELISA). Type of experiment: binding. The conditions noted are these: SW480, result in words. The protocol: It was determined by the ELISA. As an antigen, 10 µg/ml asialofetuin (SIGMA) solution in 0.1 M borate buffer (pH 8.6) whose 100 ul was immobilized to each well of the Falcon microtest III plate (96 wells) was used. The supernatant of the hybridoma culture mixture was added to the plate with 50 µl every well and allowed to stand at room temperature for 1 hour. The wells were washed with 1 % bovine serum albumin (abbreviated to BSA hereinafter)-containing Hanks' buffer salt solution (abbreviated to HBSS-B) 3 times, then 100 µl of 0.6 mg/ml p-nitrophenyl phosphate solution in 1 M diethanolamine + 1 mM MgCl2 (pH 9.8) were added. After 30 to 60 minutes, the absorbance at 405 nm wavelength was measured to select the hybridomas with antibody activity.
Fifty microliters of 30-fold diluted culture supernatant of hybridoma 11-50 with HBSS-B and fifty microliters of a variety of protein solutions diluted stepwise with HBSS-B (described in Table 3) were mixed beforehand, then 50 µl of the mixture was added to a -96-well plate to which human colon cancer cell line SW480 had been immobilized with glutaraldehyde, then allowed to stand at room temperature for 1 hour. The following procedures were done according to the method described in Example 1-(3).
Inhibitory activity in % = [1 - (A405 in the presence of an inhibitor)/(A405-in the absence of an inhibitor)]
Various kinds of oligosaccharides (listed in Table 4) were diluted stepwise with HBSS-B and the solutions were used to conduct the evaluation according to the method ,described in Example 4-(1).
Take `CC(=O)N[C@H]1[C@H](O[C@H]2[C@@H](O)[C@@H](CO)O[C@@H](O[C@H]3[C@H](O)[C@@H](O)C(O)O[C@@H]3CO)[C@@H]2O)O[C@H](CO)[C@@H](O)[C@@H]1O[C@@H]1O[C@H](CO)[C@H](O)[C@H](O)[C@H]1O` (stereo partly drawn) [Lacto-N-tetraose, Galβ1→3GlcNAcβ1→3Galβ1→4Glc]: the “inhibitory action of oligosaccharides” value is “strongest inhibition”.

The experiment is the same for the next values; noted with them: SW480; read-out: IC50 (concentration of oligosaccharides inhibiting the bonding of MCA to the cancer cells by 50%).
Take `CO[C@@H]1O[C@H](CO)[C@@H](O[C@@H]2O[C@H](CO)[C@H](O)[C@H](O)[C@H]2O)[C@H](O)[C@H]1NC(C)=O` [Galβ1→4GlcNAcβ1-OMe]: the IC50 is above 5 mM.
Still for that read-out and setting: the same measure for `OC[C@H]1O[C@@H](O[C@H]2[C@H](O)[C@@H](O)C(O)O[C@@H]2CO)[C@H](O)[C@@H](O)[C@H]1O` (stereo partly drawn) [Lactose, Galβ1→4Glc]: 21 mM.
Same read-out and setting: the value for `CO[C@H]1O[C@H](CO)[C@H](O)[C@H](O[C@@H]2O[C@H](CO)[C@H](O)[C@H](O)[C@H]2O)[C@H]1NC(C)=O` [Galβ1→3GalNAcα1-OMe] was 2.8 mM; that for `CC(=O)N[C@H]1[C@H](O[C@H]2[C@@H](O)[C@@H](CO)O[C@@H](O[C@H]3[C@H](O)[C@@H](O)C(O)O[C@@H]3CO)[C@@H]2O)O[C@H](CO)[C@@H](O)[C@@H]1O[C@@H]1O[C@H](CO)[C@H](O)[C@H](O)[C@H]1O` (stereo partly drawn) [Lacto-N-tetraose, Galβ1→3GlcNAcβ1→3Galβ1→4Glc] was 0.68 mM.
On the same count and under the same terms, the value for `O=C[C@H](O)[C@@H](O)[C@H](O[C@@H]1O[C@H](CO)[C@@H](O)[C@H](O)[C@H]1O)[C@H](O)CO` [Cellobiose, Galβ1→4Glc] was above 50 mM.
